Reference: ChEMBL document CHEMBL1201862, “PubChem BioAssay data set” (2004)
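All cell lines were grown in 96-well plates and treated with compound for 48 hours. The concentration for 50% growth inhibition is given as GI50.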 Calls of active or inactive are those of the source. Rule as the data show it: active = GI50 up to about 1.1 µM and inactive = higher.

Experiments:
Assay in all cases: NCI-60 cell line screen, 48 h
UO-31 = tested on: UO-31
DMS-114 = tested on: DMS-114
HOP-92 = tested on: HOP-92
Malme-3M = tested on: Malme-3M
EKVX = tested on: EKVX
MOLT-4 = tested on: MOLT-4
SN12C = tested on: SN12C
K562 = tested on: K562
HL-60 = tested on: HL-60
SR = tested on: SR
HCT-116 = tested on: HCT-116
SK-OV-3 = tested on: SK-OV-3
786-0 = tested on: 786-0
NCI-H460 = tested on: NCI-H460
DLD-1 = tested on: DLD-1
CCRF-CEM = tested on: CCRF-CEM
OVCAR-8 = tested on: OVCAR-8
RXF 393 = tested on: RXF 393
OVCAR-5 = tested on: OVCAR-5
LXFL 529 = tested on: LXFL 529
CAKI-1 = tested on: CAKI-1
SK-MEL-5 = tested on: SK-MEL-5
A549 = tested on: A549
SK-MEL-28 = tested on: SK-MEL-28
NCI-H522 = tested on: NCI-H522
HOP-18 = tested on: HOP-18
SNB-19 = tested on: SNB-19
HOP-62 = tested on: HOP-62
SNB-75 = tested on: SNB-75
U-251 = tested on: U-251
SK-MEL-2 = tested on: SK-MEL-2
DMS-273 = tested on: DMS-273
A498 = tested on: A498
M14 = tested on: M14
UACC-62 = tested on: UACC-62
RPMI-8226 = tested on: RPMI-8226
HCC 2998 = tested on: HCC 2998
RXF 631 = tested on: RXF 631
OVCAR-4 = tested on: OVCAR-4
SNB-78 = tested on: SNB-78
ACHN = tested on: ACHN
M19-MEL = tested on: M19-MEL
TK-10 = tested on: TK-10
UACC-257 = tested on: UACC-257
NCI-H226 = tested on: NCI-H226
OVCAR-3 = tested on: OVCAR-3
SF-539 = tested on: SF-539
KM-20L2 = tested on: KM-20L2
SF-295 = tested on: SF-295
IGROV-1 = tested on: IGROV-1
LOX IMVI = tested on: LOX IMVI
HT-29 = tested on: HT-29
NCI-H23 = tested on: NCI-H23
XF498 = tested on: XF498
SW-620 = tested on: SW-620
SF-268 = tested on: SF-268
HCT-15 = tested on: HCT-15
KM12 = tested on: KM12
COLO 205 = tested on: COLO 205

CNCc1cc(OC)ccc1-c1ccc(OC)c(OC)c1OC
GI50 (UO-31): > 88.1 µM (inactive) | GI50 (DMS-114): 60.8 µM (inactive) | GI50 (HOP-92): > 70.6 µM (inactive) | GI50 (Malme-3M): > 100 µM (inactive) | GI50 (EKVX): > 74.8 µM (inactive) | GI50 (MOLT-4): 99.3 µM (inactive) | GI50 (SN12C): > 100 µM (inactive) | GI50 (K562): 51.9 µM (inactive) | GI50 (HL-60): 48.1 µM (inactive) | GI50 (SR): > 100 µM (inactive) | GI50 (HCT-116): > 94.6 µM (inactive) | GI50 (SK-OV-3): > 100 µM (inactive) | GI50 (786-0): > 100 µM (inactive) | GI50 (NCI-H460): > 92 µM (inactive) | GI50 (DLD-1): > 100 µM (inactive) | GI50 (CCRF-CEM): > 92.9 µM (inactive) | GI50 (OVCAR-8): > 100 µM (inactive) | GI50 (RXF 393): 69.7 µM (inactive) | GI50 (OVCAR-5): > 100 µM (inactive) | GI50 (LXFL 529): > 100 µM (inactive) | GI50 (CAKI-1): > 100 µM (inactive) | GI50 (SK-MEL-5): 64.3 µM (inactive) | GI50 (A549): > 100 µM (inactive) | GI50 (SK-MEL-28): > 100 µM (inactive) | GI50 (NCI-H522): > 100 µM (inactive) | GI50 (HOP-18): > 32.5 µM (inactive) | GI50 (SNB-19): > 100 µM (inactive) | GI50 (HOP-62): > 100 µM (inactive) | GI50 (SNB-75): 44.6 µM (inactive) | GI50 (U-251): > 100 µM (inactive) | GI50 (SK-MEL-2): > 100 µM (inactive) | GI50 (DMS-273): > 100 µM (inactive) | GI50 (A498): > 100 µM (inactive) | GI50 (M14): > 100 µM (inactive) | GI50 (UACC-62): > 100 µM (inactive) | GI50 (RPMI-8226): > 100 µM (inactive) | GI50 (HCC 2998): > 88.7 µM (inactive) | GI50 (RXF 631): > 100 µM (inactive) | GI50 (OVCAR-4): > 80.9 µM (inactive) | GI50 (SNB-78): > 100 µM (inactive) | GI50 (ACHN): > 100 µM (inactive) | GI50 (M19-MEL): > 100 µM (inactive) | GI50 (TK-10): > 100 µM (inactive) | GI50 (UACC-257): > 100 µM (inactive) | GI50 (NCI-H226): > 100 µM (inactive) | GI50 (OVCAR-3): > 70 µM (inactive) | GI50 (SF-539): > 100 µM (inactive) | GI50 (KM-20L2): > 100 µM (inactive) | GI50 (SF-295): 75 µM (inactive) | GI50 (IGROV-1): > 100 µM (inactive) | GI50 (LOX IMVI): > 96.8 µM (inactive) | GI50 (HT-29): 82.6 µM (inactive) | GI50 (NCI-H23): > 100 µM (inactive) | GI50 (XF498): 85.3 µM (inactive) | GI50 (SW-620): > 96.4 µM (inactive) | GI50 (SF-268): > 100 µM (inactive) | GI50 (HCT-15): > 100 µM | GI50 (KM12): > 85.9 µM (inactive) | GI50 (COLO 205): > 100 µM (inactive)

O=C1C=CC2(CCC23C=CC(=O)O3)O1 (stereo not drawn)
GI50 (UO-31): > 100 µM (inactive) | GI50 (DMS-114): > 100 µM (inactive) | GI50 (Malme-3M): > 100 µM (inactive) | GI50 (EKVX): > 100 µM (inactive) | GI50 (MOLT-4): > 100 µM (inactive) | GI50 (SN12C): > 100 µM (inactive) | GI50 (K562): > 100 µM (inactive) | GI50 (HL-60): 74.8 µM (inactive) | GI50 (HCT-116): > 100 µM (inactive) | GI50 (SK-OV-3): > 100 µM (inactive) | GI50 (786-0): > 100 µM (inactive) | GI50 (NCI-H460): > 100 µM (inactive) | GI50 (DLD-1): > 100 µM (inactive) | GI50 (CCRF-CEM): 86.5 µM (inactive) | GI50 (OVCAR-8): > 100 µM (inactive) | GI50 (RXF 393): > 100 µM (inactive) | GI50 (OVCAR-5): > 100 µM (inactive) | GI50 (LXFL 529): 81.3 µM (inactive) | GI50 (A549): > 100 µM (inactive) | GI50 (SK-MEL-28): > 100 µM (inactive) | GI50 (NCI-H522): 51.6 µM (inactive) | GI50 (HOP-18): > 100 µM (inactive) | GI50 (SNB-19): > 100 µM (inactive) | GI50 (HOP-62): > 100 µM (inactive) | GI50 (SNB-75): > 100 µM (inactive) | GI50 (U-251): > 100 µM (inactive) | GI50 (SK-MEL-2): > 100 µM (inactive) | GI50 (A498): > 100 µM (inactive) | GI50 (M14): > 100 µM (inactive) | GI50 (UACC-62): > 100 µM (inactive) | GI50 (RPMI-8226): > 100 µM (inactive) | GI50 (HCC 2998): > 100 µM (inactive) | GI50 (RXF 631): 71 µM (inactive) | GI50 (OVCAR-4): > 100 µM (inactive) | GI50 (SNB-78): > 100 µM (inactive) | GI50 (ACHN): > 100 µM (inactive) | GI50 (M19-MEL): > 100 µM (inactive) | GI50 (TK-10): > 100 µM (inactive) | GI50 (UACC-257): > 100 µM (inactive) | GI50 (NCI-H226): > 100 µM (inactive) | GI50 (OVCAR-3): > 100 µM (inactive) | GI50 (SF-539): > 100 µM (inactive) | GI50 (KM-20L2): > 100 µM (inactive) | GI50 (SF-295): > 100 µM (inactive) | GI50 (IGROV-1): > 100 µM (inactive) | GI50 (LOX IMVI): > 100 µM (inactive) | GI50 (HT-29): > 100 µM (inactive) | GI50 (NCI-H23): > 100 µM (inactive) | GI50 (XF498): > 100 µM (inactive) | GI50 (SW-620): 94.6 µM (inactive) | GI50 (SF-268): > 100 µM (inactive) | GI50 (HCT-15): > 100 µM | GI50 (KM12): > 100 µM (inactive) | GI50 (COLO 205): > 100 µM (inactive)
